According to paper PMC7327080, “A novel 4-aminoquinazoline derivative, DHW-208, suppresses the growth of human breast cancer cells by targeting the PI3K/AKT/mTOR pathway” (Cell Death & Disease, 2020):

Target: mTOR (Homo sapiens, UniProt P42345)
Experiment: in vitro mTOR kinase activity assay (inhibition curve, Fig. 5e)
Format: biochemical

IC50: 3 nM
Compound: COc1ncc(-c2ccc3ncnc(Nc4cnn(CCO)c4)c3c2)cc1NS(=O)(=O)c1ccc(F)cc1F [DHW-208, 2,4-difluoro-N-(5-(4-((1-(2-hydroxyethyl)-1H-pyrazol-4-yl)amino)quinazolin-6-yl)-2-methoxypyridin-3-yl)benzenesulfonamide]
